Test results taken from the supplement of paper PMC10307832.

Columns and labels:
Assay in all cases: relative viability (nuclei count vs DMSO), 5 days (fraction); higher = more cells survive
Afatinib + Palbociclib = compound: CN(C)C/C=C/C(=O)Nc1cc2c(Nc3ccc(F)c(Cl)c3)ncnc2cc1O[C@H]1CCOC1 [Afatinib] + CC(=O)c1c(C)c2cnc(Nc3ccc(N4CCNCC4)cn3)nc2n(C2CCCC2)c1=O [Palbociclib] (partner 0.5 µM)
In short: (§1)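 Relative viability is defined as nuclei in treated wells over nuclei in vehicle wells. Duplicate plates were run and medians reported. Lung cancer cell lines in 1536-well plates were dosed by pin tool one day after seeding, with one drug or with a fixed anchor-drug dose plus five library-drug doses (not always all listed) in √10 steps, and nuclei were counted after 5 days.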

Afatinib + Luminespib = compound: CN(C)C/C=C/C(=O)Nc1cc2c(Nc3ccc(F)c(Cl)c3)ncnc2cc1O[C@H]1CCOC1 [Afatinib] + CCNC(=O)c1noc(-c2cc(C(C)C)c(O)cc2O)c1-c1ccc(CN2CCOCC2)cc1 [Luminespib] (partner 0.01 µM)
In short: as §1

Afatinib + OSI-027 = compound: CN(C)C/C=C/C(=O)Nc1cc2c(Nc3ccc(F)c(Cl)c3)ncnc2cc1O[C@H]1CCOC1 [Afatinib] + COc1cccc2cc(-c3nc([C@H]4CC[C@H](C(=O)O)CC4)n4ncnc(N)c34)[nH]c12 [OSI-027] (partner 0.5 µM)
In short: as §1

Afatinib + Pictilisib = compound: CN(C)C/C=C/C(=O)Nc1cc2c(Nc3ccc(F)c(Cl)c3)ncnc2cc1O[C@H]1CCOC1 [Afatinib] + CS(=O)(=O)N1CCN(Cc2cc3nc(-c4cccc5[nH]ncc45)nc(N4CCOCC4)c3s2)CC1 [Pictilisib] (partner 1 µM)
In short: as §1

Cell Line	relative viability (Afatinib + Palbociclib; first compound 0.005 µM)	relative viability (Afatinib + Palbociclib; first compound 0.05 µM)	relative viability (Afatinib + Palbociclib; first compound 0.1581 µM)	relative viability (Afatinib + Palbociclib; first compound 0.5 µM)	relative viability (Afatinib + Luminespib; first compound 0.005 µM)	relative viability (Afatinib + Luminespib; first compound 0.01581 µM)	relative viability (Afatinib + Luminespib; first compound 0.05 µM)	relative viability (Afatinib + Luminespib; first compound 0.1581 µM)	relative viability (Afatinib + Luminespib; first compound 0.5 µM)	relative viability (Afatinib + OSI-027; first compound 0.005 µM)	relative viability (Afatinib + OSI-027; first compound 0.01581 µM)	relative viability (Afatinib + OSI-027; first compound 0.05 µM)	relative viability (Afatinib + OSI-027; first compound 0.1581 µM)	relative viability (Afatinib + OSI-027; first compound 0.5 µM)	relative viability (Afatinib + Pictilisib; first compound 0.005 µM)	relative viability (Afatinib + Pictilisib; first compound 0.01581 µM)	relative viability (Afatinib + Pictilisib; first compound 0.05 µM)	relative viability (Afatinib + Pictilisib; first compound 0.1581 µM)	relative viability (Afatinib + Pictilisib; first compound 0.5 µM)	relative viability (Afatinib + Palbociclib; first compound 0.01581 µM)
ABC-1	0.559	0.576	0.572	0.561	0.938	0.717	0.538	0.2	0.857	0.475	0.315	0.453	0.429	0.405	0.816	0.52	0.679	0.578	0.762	
NCI-H520	0.245	0.229	0.219	0.229	0.21	0.264	0.223	0.215	0.234	0.357	0.198	0.201	0.261	0.234	0.353	0.304	0.208	0.232	0.233	0.241
EPLC-272H	0.31	0.283	0.284	0.292	0.239	0.482	0.228	0.267	0.172	0.279	0.203	0.231	0.213	0.211	0.342	0.301	0.297	0.324	0.348	0.294
UMC-11	0.355	0.283	0.308	0.325	1.03	1.08	1.06	1.01	0.944	0.469	0.427	0.462	0.46	0.456	0.981	0.841	0.787	0.725	0.84	0.325
NCI-H1792	0.73	0.63	0.599	0.651	0.389	0.695	0.464	0.376	0.41	0.662	0.762	0.707	0.672	0.735	0.303	0.325	0.255	0.241	0.243	0.661
NCI-H1993	0.532	0.539	0.538	0.577	0.752	0.557	0.58	0.549	0.571	0.519	0.588	0.674	0.697	0.564	0.93	0.937	0.983	1.03	0.868	0.571
NCI-H1793	0.258	0.273	0.218	0.21	0.19	0.215	0.238	0.168	0.173	0.237	0.211	0.168	0.233	0.146	0.36	0.23	0.362	0.39	0.31	0.3
NCI-H1395	0.592	0.625	0.591	0.606	0.733	0.781	0.664	0.7	0.665	0.587	0.561	0.688	0.681	0.592	0.658	0.515	0.723	0.624	0.551	0.572
